{
  "source": "patent US12447117B2",
  "about": "“Composition and method of enhancing skin barrier using the same” (AMOREPACIFIC CORPORATION, priority 2018, dated 2025)",
  "key": {"[1]": {"system": "KRT10 (keratin 10) gene expression in normal human epidermal keratinocytes (NHEK)", "experiment": "Expression level of keratinocyte differentiation marker KRT10 in UVB-irradiated NHEK (TAQMAN real-time PCR)", "type": "cell-based", "conditions": "UVB 25 mJ/cm^2, 10 nM compound, harvested on fourth day of culture, versus UV-irradiated cells (FIG. 1)", "description": "(§1) Normal human epidermal keratinocytes (NHEK) were cultured in a 6-well plate incubator. 24 hours later, the normal human epidermal keratinocytes (NHEK) were cultured by replacing it with phosphate-buffered saline (PBS) and irradiating it with UVB (25 mJ/cm^2) and adding 10 nM of a compound represented by Chemical Formula 1-1 (Cayman Chemical) to the NHEK culture medium. On the fourth day of the culture, cells were harvested to separate RNA and synthesize cDNA through RT-PCR (a reverse transcriptional polymerase chain reaction), and the synthesized cDNA was used to perform TAQMAN™ real-time PCR and measure gene expression levels of a keratinocyte differentiation marker, KRT10, and a desmosome constituent factor, DSC1, and the results are shown in FIGS. 1 and 2."}, "[2]": {"system": "DSC1 (Desmocollin-1) gene expression in normal human epidermal keratinocytes (NHEK)", "experiment": "Expression level of desmosome constituent factor DSC1 in UVB-irradiated NHEK (TAQMAN real-time PCR)", "type": "cell-based", "conditions": "UVB 25 mJ/cm^2, 10 nM compound, harvested on fourth day of culture, versus UV-irradiated cells (FIG. 2)", "description": "as §1"}},
  "data": [
    {"smiles": "CC/C=C\\C[C@H](O)/C=C/C=C\\C=C\\C=C\\[C@@H](O)[C@@H](O)C/C=C\\CCC(=O)O", "note": "[Chemical Formula 1-1]", "values": [
      {"measurement": "gene expression level of KRT10 (keratin 10)", "setting": "[1]", "result": "increased again"},
      {"measurement": "gene expression level of DSC1", "setting": "[2]", "result": "increased again"}
    ]}
  ]
}
